Assays:
[1] = tested on: trimethylation level of histone H3K27 in G401 cells; test: ELISA (H3K27 trimethylation) analysis in G401 cells; format: cell-based; settings: Homo sapiens, G-401, 72 hours, H3K27me3 standardized to H3
Method: 3-fold series dilution with DMSO was carried out on the representative compounds of the present disclosure; and 10 concentration gradients were detected for each compound, with the highest detection concentration of 10 μM. The compounds were diluted 200-fold into the G401 cells cultured in a 96-well plate (DMSO at a final concentration of 0.5%). After the cells, administered with the compound, were cultured for 72 hours, the trimethylation level of the histone H3K27 was detected using the ELISA method.
Extraction of the histone: in a 96-well plate, the compound-treated cells were washed three times with 1×PBS (10×PBS buffer (80 g NaCl (Sigma, product number S3014), 2 g KCl (Sigma, product number 60128), 14.4 g Na2HPO4 (Sigma, product number S5136), and 2.4 g KH2PO4 (Sigma, product number P9791) in 1 L of water, adjusting the pH to 7.4)). 100 μL of 0.4 N HCl was added into each well. The plate was placed at 4° C. and gently agitated for 2 hours to lyse the cells. The cell lysate was then neutralized with 80 μL of neutralization buffer (0.5 M disodium hydrogen phosphate, pH 12.5, 2.5 mM DTT; 1% cocktail (Sigma, product number P8340)) (the cell lysate and the neutralization buffer were thoroughly mixed to uniformity).
ELISA detection method: the cell lysate was transferred in parallel to two 384-well detection plates (PerkinElmer, OptiPlate-384HB, product number 6007290), wherein one of the plates was used to detect the H3K27 trimethylation level and the other plate was used to determine the level of H3. PBS was used to adjust the final volume to 50 μL/well. The plates were coated at 4° C. overnight. On the following day, the solution inside the wells was discarded and the plates were washed 5 times with TBST buffer (1×TBS (10×TBS: 24.2 g Tris (Sigma, product number T6066), 80 g NaCl (Sigma, product number S3014) in 1 L of water, adjusting the pH with HCl to 7.6), 0.1% Tween-20) and dried on an absorbent paper by inversion. 70 μL of blocking buffer (TBST, 5% BSA) was added into the coated reaction wells and the plates were incubated at room temperature for 1 hour. The blocking buffer was discarded and primary antibodies were added (30 μL/well). The desired primary antibodies were all diluted with a blocking buffer and the dilution factor was as follows: anti-H3K27me3 antibody (Cell Signaling Technology, product number 9733), 1:2000 dilution; anti-H3 antibody (Cell Signaling Technology, product number 4499), 1:10000 dilution. After the primary antibodies were added, the plates were placed at room temperature and incubated for 1 hour. After the plates were washed with TBST 5 times, the plates were dried by inversion. A secondary antibody (30 μL/well) was added to each of the reaction wells and the plates were incubated at room temperature for 1 hour. The secondary antibody (anti-rabbit antibody (Jackson ImmunoResearch, product number 111-035-003)) was diluted 2000-fold with a blocking buffer before use. After 1 hour, the plates were washed with TBST and dried by inversion. 30 μL of ECL substrate (Pierce, product number 34080) was added into each well and centrifuged at 2000 rpm for 30 seconds. The signal of each sample was detected using SpectraMax (Molecular Devices). Data processing: H3K27 methylation readings were first standardlized using H3 signals and 0.5% DMSO-treated samples was used as the control to calculate the inhibition percentage of the compounds. Data were fit to obtain Dose-Response curves using the GraphPad prism 5 program and the IC50 values of the test compounds were obtained.

[2] = tested on: KARPAS-422 cells; test: Cell proliferation analysis, KARPAS-422, 13 days, CellTiter-Glo; format: cell-based; settings: Homo sapiens, 312 h
Method: Human B-cell non-Hodgkin lymphoma cells, KARPAS-422 S, were cultured in a culture flask using standard cell culture conditions. The medium contained 15% fetal bovine serum (FBS, Invitrogen, product number 10099-141) and 1% penicillin/streptomycin solution (P/S) RPMI-1640 (Invitrogen, product number 11875), and the culture flask was placed and cultured in a sterile incubator at the temperature of 37° C. and […] with a relative humidity of […] To detect the effect of PRC2 inhibitors on cell proliferation, cells in exponential growth phase were taken and seeded into a 96-well plate (Corning, product number 3904) at a density of 1×10^4 cells/well, and 100 μL of the medium was added into each well. Subsequently, the compounds at different concentrations disclosed in the present disclosure were added into the wells where cells had already been seeded (9 concentration gradients were provided for each compound, with the highest detection concentration at 10 μM, 3-fold gradient dilution) and two replicates in parallel were provided for each treatment concentration. DMSO was at a final concentration of 0.5%. Afterwards, viable cell numbers were determined using Vi-CELL (Beckman Coulter) every 3-4 days. Cells counted were seeded into a new 96-well plate at the same density (1×10^4 cells/well) each time. The wells were supplemented with a fresh medium to 100 μL and at the same time, compounds at different concentrations were added. The cells were cultured to day 13. 100 μL of CellTiter-Glo (CellTiter-GloCellTiter-GloCellTiter-GloCTG) (Promega, product number G7573) was added into each well. The plate was placed in the dark at room temperature for 10-20 minutes and the luminescence signal was read using SpectraMax i3× (Molecular Devices).

IC50 [1]	IC50 [2]	SMILES
0.001 µM	0.0014 µM	CN(C)c1ccc(-c2cnc(NCc3c(F)ccc4c3CCO4)n3cnnc23)c2ncnn12 [8-(5-(dimethylamino)-[1,2,4]triazolo[1,5-a]pyridin-8-yl)-N-((5-fluoro-2,3-dihydrobenzofuran-4-yl)methyl)-[1,2,4]triazolo[4,3-c]pyrimidin-5-amine]
0.0006 µM	0.0005 µM	CN(C)Cc1ccc(-c2cnc(NCc3c(F)ccc4c3CCO4)n3cnnc23)c2ncnn12 [8-(5-((dimethylamino)methyl)-[1,2,4]triazolo[1,5-a]pyridin-8-yl)-N-((5-fluoro-2,3-dihydrobenzofuran-4-yl)methyl)-[1,2,4]triazolo[4,3-c]pyrimidin-5-amine]
0.0008 µM	0.0005 µM	CC1CN(c2ccc(-c3cnc(NCc4c(F)ccc5c4CCO5)n4cnnc34)c3ncnn23)CCO1 (stereo not drawn) [N-((5-fluoro-2,3-dihydrobenzofuran-4-yl)methyl)-8-(5-(2-methylmorpholino)-[1,2,4]triazolo[1,5-a]pyridin-8-yl)-[1,2,4]triazolo[4,3-c]pyrimidin-5-amine]
0.0035 µM	0.0022 µM	Cc1ccc(-c2cnc(NCc3c(F)ccc4c3CCO4)n3cnnc23)c2ncc(C(N)=O)n12 [8-(5-(((5-fluoro-2,3-dihydrobenzofuran-4-yl)methyl)amino)-[1,2,4]triazolo[4,3-c]pyrimidin-8-yl)-5-methylimidazo[1,2-a]pyridine-3-carboxamide]
0.0007 µM	0.0012 µM	Fc1ccc2c(c1CNc1ncc(-c3cccc4nn[nH]c34)c3nncn13)CCO2 [8-(1H-benzo[d][1,2,3]triazol-7-yl)-N-((5-fluoro-2,3-dihydrobenzofuran-4-yl)methyl)-[1,2,4]triazolo[4,3-c]pyrimidin-5-amine]
0.0084 µM	0.0054 µM	CN(C)c1nc2c(-c3cnc(NCc4c(F)ccc5c4CCO5)n4cnnc34)cccn2n1 [8-(2-(dimethylamino)-[1,2,4]triazolo[1,5-a]pyridin-8-yl)-N-((5-fluoro-2,3-dihydrobenzofuran-4-yl)methyl)-[1,2,4]triazolo[4,3-c]pyrimidin-5-amine]
0.0002 µM	0.0002 µM	Cc1ccc(-c2cnc(NCc3c(F)ccc4c3CCO4)n3cnnc23)c2nncn12 [N-((5-fluoro-2,3-dihydrobenzofuran-4-yl)methyl)-8-(5-methyl-[1,2,4]triazolo[4,3-a]pyridin-8-yl)-[1,2,4]triazolo[4,3-c]pyrimidin-5-amine]
0.0143 µM	0.0057 µM	Cc1ccc(-c2cnc(NCc3c(F)ccc4c3CCO4)n3cnnc23)c2ncc(CC(=O)N3CCOCC3)n12 [2-(8-(5-(((5-fluoro-2,3-dihydrobenzofuran-4-yl)methyl)amino)-[1,2,4]triazolo[4,3-c]pyrimidin-8-yl)-5-methylimidazo[1,2-a]pyridin-3-yl)-1-morpholinoethan-1-one]
0.0036 µM	0.0047 µM	Cc1c(F)cc(-c2cnc(NCc3c(F)ccc4c3CCO4)n3cnnc23)c2ncnn12 [N-((5-fluoro-2,3-dihydrobenzofuran-4-yl)methyl)-8-(6-fluoro-5-methyl-[1,2,4]triazolo[1,5-a]pyridin-8-yl)-[1,2,4]triazolo[4,3-c]pyrimidin-5-amine]
0.0024 µM	0.0044 µM	Cc1ccc(-c2cnc(NCc3c(F)ccc4c3[C@H]3C[C@H]3O4)n3cnnc23)c2ncnn12 [N-(((1aR,6bR)-5-fluoro-1a,6b-dihydro-1H-cyclopropa[b]benzofuran-6-yl)methyl)-8-(5-methyl-[1,2,4]triazolo[1,5-a]pyridin-8-yl)-[1,2,4]triazolo[4,3-c]pyrimidin-5-amine]
0.0045 µM	0.0025 µM	Cc1ncc(-c2cnc(NCc3c(F)ccc4c3CCO4)n3cnnc23)c2ncnn12 [N-((5-fluoro-2,3-dihydrobenzofuran-4-yl)methyl)-8-(5-methyl-[1,2,4]triazolo[1,5-c]pyrimidin-8-yl)-[1,2,4]triazolo[4,3-c]pyrimidin-5-amine]
0.0017 µM	0.0018 µM	Cc1ccc(-c2cnc(NCc3c(F)ccc4c3CCO4)n3cnnc23)c2ncnn12 [N-((5-fluoro-2,3-dihydrobenzofuran-4-yl)methyl)-8-(5-methyl-[1,2,4]triazolo[1,5-a]pyridin-8-yl)-[1,2,4]triazolo[4,3-c]pyrimidin-5-amine]
0.0041 µM	0.0007 µM	CN1CCN(c2ccc(-c3cnc(NCc4c(F)ccc5c4CCO5)n4cnnc34)c3ncnn23)CC1 [N-((5-fluoro-2,3-dihydrobenzofuran-4-yl)methyl)-8-(5-(4-methylpiperazin-1-yl)-[1,2,4]triazolo[1,5-a]pyridin-8-yl)-[1,2,4]triazolo[4,3-c]pyrimidin-5-amine]
0.0052 µM	0.003 µM	Cc1ccc(-c2cnc(NCc3c(F)ccc4c3CCO4)n3cnnc23)c2ncc(C#N)n12 [8-(5-(((5-fluoro-2,3-dihydrobenzofuran-4-yl)methyl)amino)-[1,2,4]triazolo[4,3-c]pyrimidin-8-yl)-5-methylimidazo[1,2-a]pyridine-3-carbonitrile]
0.0009 µM	0.0009 µM	CN(C)c1ccc(-c2cnc(NCc3c(F)ccc4c3CCO4)n3cnnc23)c2ncc(C#N)n12 [5-(dimethylamino)-8-(5-(((5-fluoro-2,3-dihydrobenzofuran-4-yl)methyl)amino)-[1,2,4]triazolo[4,3-c]pyrimidin-8-yl)imidazo[1,2-a]pyridine-3-carbonitrile]
0.0027 µM	0.0032 µM	Fc1ccc2c(c1CNc1ncc(-c3ccc(N4CCCC4)n4ncnc34)c3nncn13)CCO2 [N-((5-fluoro-2,3-dihydrobenzofuran-4-yl)methyl)-8-(5-(pyrrolidin-1-yl)-[1,2,4]triazolo[1,5-a]pyridin-8-yl)-[1,2,4]triazolo[4,3-c]pyrimidin-5-amine]
0.0069 µM	0.036 µM	Fc1ccc2c(c1CNc1ncc(-c3ccc(C(F)(F)F)n4ncnc34)c3nncn13)CCO2 [N-((5-fluoro-2,3-dihydrobenzofuran-4-yl)methyl)-8-(5-(trifluoromethyl)-[1,2,4]triazolo[1,5-a]pyridin-8-yl)-[1,2,4]triazolo[4,3-c]pyrimidin-5-amine]
0.0014 µM	0.0012 µM	Cc1ccc(-c2cnc(NCc3c(F)ccc4c3CCO4)n3cnnc23)c2ncc(C(=O)N(C)C)n12 [8-(5-(((5-fluoro-2,3-dihydrobenzofuran-4-yl)methyl)amino)-[1,2,4]triazolo[4,3-c]pyrimidin-8-yl)-N,N,5-trimethylimidazo[1,2-a]pyridine-3-carboxamide]

Reference: patent publication US12583870B2, “Azaheteroaryl compound and application thereof” (SHANGHAI BLUERAY BIOPHARMA CO., LTD., priority 2019, dated 2026)
